The values that follow come from patent US10221174B2, “N-(phenylsulfonyl)benzamides and related compounds as BCL-2 inhibitors” (THE REGENTS OF THE UNIVERSITY OF MICHIGAN, priority 2016, dated 2019).

Read-outs that look alike come from different tables or passages of the source.

A short description of series [1]: Pharmacokinetics in rats. The format is in vivo. On the procedure:
The pharmacokinetics of ABT-199 and representative Compounds of the Disclosure were evaluated in rats at an IV dose of 2 mg/kg and an oral dose of 20 mg/kg.

In series [2] the test system is RS4;11 cells. The experiment in a line: RS4;11 cell viability, CCK-8 assay. Format: cell-based. Conditions: Homo sapiens, RS4-11, 96 h, CCK-8, 4 days, read-out: RS4, 11 IC50 (Bcl-2 dependent). On the procedure: RS4;11 cells were obtained from American Type Culture Collection (ATCC). They were used within three months of thawing fresh vials. Cells were maintained in the recommended culture medium with 10% FBS at 37° C. and an atmosphere of 5% CO2.
The effect of representative Compounds of the Disclosure on cell viability was determined using Cell Counting Kit-8 (CCK-8) assay (Dojindo, Rockville, Md.) according to the manufacturer's instructions. 200 μL of a RS4;11 cell suspension (10000 cells/well) in culture medium were seeded into 96-well plates and cultured overnight. Each tested compound was serially diluted in culture medium, and 20 μL of the compound dilution was added to the corresponding well of the cell plate. After the addition of the tested compound, the cells were incubated at 37° C. in an atmosphere of 5% CO2 for 4 days. At the end of 4 days, 10 μL of CCK-8 solution was added to each well of the plate and incubated for 1-4 hours. The plates were read at 450 nm on the microplate spectrophotometer (Epoch2, BioTek). The readings were normalized to the vehicle cells, and the IC50 was calculated by nonlinear regression analysis using GraphPad Prism 5 software.

Series [3] has as its system MV4;11 cell line. The experiment in a line: MV4;11 inhibition. Format: cell-based.

With `CC1(C)CCC(CN2CCN(c3ccc(C(=O)NS(=O)(=O)c4ccc(NCC5CCOCC5)c([N+](=O)[O-])c4)c(Oc4cnc5[nH]ccc5c4)c3)CC2)=C(c2ccc(Cl)cc2)C1` [ABT-199, Venetoclax, reference compound], the “AUC0-∞ IV” value in series [1] (IV 2 mg/kg) came to 5446 n · gh/mL. The “AUC0-∞ PO” value in series [1] (oral 20 mg/kg) is recorded as 20812 n · gh/mL. The “F(AUC0-t)” value in series [1] (oral 20 mg/kg vs IV 2 mg/kg) turned out to be 38.2%. The same compound returned an MRT inf in series [1] (rat, in vivo, IV 2 mg/kg) of 1.23 h. The AUC(0-t) in series [1] (rat, in vivo, IV 2 mg/kg, read-out: AUC0-t IV) came out at 5440 ng·h/mL; in series [1] (rat, in vivo, oral 20 mg/kg, read-out: AUC0-t PO), 20800 ng·h/mL. In series [1] (rat, in vivo, IV 2 mg/kg, read-out: CL (iv) (converted)), the clearance is 6.57 mL/min/kg. The Cmax in series [1] (rat, in vivo, IV 2 mg/kg, read-out: Cmax IV) is 8740 ng/mL; in series [1] (rat, in vivo, oral 20 mg/kg, read-out: Cmax PO), 6000 ng/mL. Further, the Tmax in series [1] (rat, in vivo, IV 2 mg/kg, read-out: Tmax IV) came out at 4.98 min; in series [1] (rat, in vivo, oral 20 mg/kg, read-out: Tmax PO), 100 min. Also, the Vd in series [1] (rat, in vivo, IV 2 mg/kg, read-out: Vss (iv)) turned out to be 0.496 L/kg. Moreover, the half-life in series [1] (rat, in vivo, IV 2 mg/kg, read-out: t1/2 IV (converted)) was 259 min; in series [1] (rat, in vivo, oral 20 mg/kg, read-out: t1/2 PO (converted)) it was 193 min.

As to `O=C(NS(=O)(=O)c1ccc(NC[C@@H]2COCCO2)c([N+](=O)[O-])c1)c1ccc(C2=CCN(CC3=C(c4ccc(Cl)cc4)CC4(CC3)COC4)CC2)cc1Oc1cnc2[nH]ccc2c1` [Cpd. No. 5, (R)-N-((4-(((1,4-dioxan-2-yl)methyl)amino)-3-nitrophenyl)sulfonyl)-2-((1H-pyrrolo[2,3-b]pyridin-5-yl)oxy)-4-(1-((6-(4-chlorophenyl)-2-oxaspiro[3.5]non-6-en-7-yl)methyl)-1,2,3,6-tetrahydropyridin-4-yl)benzamide], in series [2], the IC50 stood at 22 nM.

For `O=C(NS(=O)(=O)c1cc([N+](=O)[O-])n(CC2CCOCC2)c1)c1ccc(N2CCN(CC3=C(c4ccc(Cl)cc4)CC4(CCC4)CC3)CC2)cc1Oc1cnc2[nH]ccc2c1` [Cpd. No. 25, 2-((1H-pyrrolo[2,3-b]pyridin-5-yl)oxy)-4-(4-((6-(4-chlorophenyl)spiro[3.5]non-6-en-7-yl)methyl)piperazin-1-yl)-N-((5-nitro-1-((tetrahydro-2H-pyran-4-yl)methyl)-1H-pyrrol-3-yl)sulfonyl)benzamide], the 50% inhibitory concentration (IC50) amounted to 1090 nM in series [2] and 5150 nM in series [3] (Homo sapiens, MV4-11).

`O=C(NS(=O)(=O)c1cc(F)c(NC[C@H]2COCCO2)c([N+](=O)[O-])c1)c1ccc(N2CCN(CC3=C(c4ccc(Cl)cc4)CC4(CCC4)CC3)CC2)cc1Oc1cnc2[nH]ccc2c1` [Cpd. No. 40, (S)-N-((4-(((1,4-dioxan-2-yl)methyl)amino)-3-fluoro-5-nitrophenyl)sulfonyl)-2-((1H-pyrrolo[2,3-b]pyridin-5-yl)oxy)-4-(4-((6-(4-chlorophenyl)spiro[3.5]non-6-en-7-yl)methyl)piperazin-1-yl)benzamide]: the IC50 in series [2] stood at 1.4 nM; in series [3] (Homo sapiens, MV4-11), 2.46 nM.

Consider `O=C(NS(=O)(=O)c1cc([N+](=O)[O-])c(NC[C@H]2COCCO2)cc1F)c1ccc(N2CCN(CC3=C(c4ccc(Cl)cc4)CC4(CCC4)CC3)CC2)cc1Oc1cnc2[nH]ccc2c1` [Cpd. No. 44, (S)-N-((4-(((1,4-dioxan-2-yl)methyl)amino)-2-fluoro-5-nitrophenyl)sulfonyl)-2-((1H-pyrrolo[2,3-b]pyridin-5-yl)oxy)-4-(4-((6-(4-chlorophenyl)spiro[3.5]non-6-en-7-yl)methyl)piperazin-1-yl)benzamide], for which, in series [2], the 50% inhibitory concentration (IC50) was 7160 nM.

As for `O=C(NS(=O)(=O)c1ccc(NC[C@@H]2COCCO2)c([N+](=O)[O-])c1)c1ccc(N2CCN(CC3=C(c4ccc(Cl)cc4)CC4(CC3)COC4)CC2)cc1Oc1cnc2[nH]ccc2c1` [compound 8, (R)-N-((4-(((1,4-dioxan-2-yl)methyl)amino)-3-nitrophenyl)sulfonyl)-2-((1H-pyrrolo[2,3-b]pyridin-5-yl)oxy)-4-(4-((6-(4-chlorophenyl)-2-oxaspiro[3.5]non-6-en-7-yl)methyl)piperazin-1-yl)benzamide], the IC50 in series [2] came out at 3.7 nM.

Regarding `O=C(NS(=O)(=O)c1ccc(NCC2CCOCC2)c([N+](=O)[O-])c1)c1ccc(C2=CCN(CC3=C(c4ccc(Cl)cc4)CC4(CC3)COC4)CC2)cc1Oc1cnc2[nH]ccc2c1` [compound 9, 2-((1H-pyrrolo[2,3-b]pyridin-5-yl)oxy)-4-(1-((6-(4-chlorophenyl)-2-oxaspiro[3.5]non-6-en-7-yl)methyl)-1,2,3,6-tetrahydropyridin-4-yl)-N-((3-nitro-4-(((tetrahydro-2H-pyran-4-yl)methyl)amino)phenyl)sulfonyl)benzamide], the IC50 in series [2] is 28 nM.

`O=C(NS(=O)(=O)c1ccc(NC[C@@H]2COCCO2)c([N+](=O)[O-])c1)c1ccc(N2CCN(CC3=C(c4ccc(Cl)cc4)CC4(CCC4)CC3)CC2)cc1Oc1cnc2[nH]ccc2c1` [compound 13, (R)-N-((4-(((1,4-dioxan-2-yl)methyl)amino)-3-nitrophenyl)sulfonyl)-2-((1H-pyrrolo[2,3-b]pyridin-5-yl)oxy)-4-(4-((6-(4-chlorophenyl)spiro[3.5]non-6-en-7-yl)methyl)piperazin-1-yl)benzamide]: the IC50 in series [2] turned out to be 2.8 nM.

As for `COCCOCCn1nc2cc(S(=O)(=O)NC(=O)c3ccc(N4CCN(CC5=C(c6ccc(Cl)cc6)CC6(CCC6)CC5)CC4)cc3Oc3cnc4[nH]ccc4c3)cc([N+](=O)[O-])c2c1F` [compound 22, 2-((1H-pyrrolo[2,3-b]pyridin-5-yl)oxy)-4-(4-((6-(4-chlorophenyl)spiro[3.5]non-6-en-7-yl)methyl)piperazin-1-yl)-N-((3-fluoro-2-(2-(2-methoxyethoxy)ethyl)-4-nitro-2H-indazol-6-yl)sulfonyl)benzamide], the IC50 worked out at 20 nM in series [2] and 58.9 nM in series [3] (Homo sapiens, MV4-11).

For `O=C(NS(=O)(=O)C1=CC2C(=O)N(C3CCOCC3)CC2C([N+](=O)[O-])=C1)c1ccc(N2CCN(CC3=C(c4ccc(Cl)cc4)CC4(CCC4)CC3)CC2)cc1Oc1cnc2[nH]ccc2c1` (stereo not shown) [compound 23, 2-((1H-pyrrolo[2,3-b]pyridin-5-yl)oxy)-4-(4-((6-(4-chlorophenyl)spiro[3.5]non-6-en-7-yl)methyl)piperazin-1-yl)-N-((7-nitro-3-oxo-2-(tetrahydro-2H-pyran-4-yl)-2,3,3a,7a-tetrahydro-1H-isoindol-5-yl)sulfonyl)benzamide], the IC50 in series [2] stood at 19 nM; in series [3] (Homo sapiens, MV4-11), 54.6 nM.

`O=C(NS(=O)(=O)c1cc([N+](=O)[O-])n(CCC2CCOCC2)c1)c1ccc(N2CCN(CC3=C(c4ccc(Cl)cc4)CC4(CCC4)CC3)CC2)cc1Oc1cnc2[nH]ccc2c1` [compound 24, 2-((1H-pyrrolo[2,3-b]pyridin-5-yl)oxy)-4-(4-((6-(4-chlorophenyl)spiro[3.5]non-6-en-7-yl)methyl)piperazin-1-yl)-N-((5-nitro-1-(2-(tetrahydro-2H-pyran-4-yl)ethyl)-1H-pyrrol-3-yl)sulfonyl)benzamide]: the IC50 in series [3] (Homo sapiens, MV4-11) was 243000 nM.

Take `O=C(NS(=O)(=O)c1ccc(NC[C@H]2COCCO2)c([N+](=O)[O-])c1)c1cc(F)c(N2CCN(CC3=C(c4ccc(Cl)cc4)CC4(CCC4)CC3)CC2)cc1Oc1cnc2[nH]ccc2c1` [compound 26, (S)-N-((4-(((1,4-dioxan-2-yl)methyl)amino)-3-nitrophenyl)sulfonyl)-2-((1H-pyrrolo[2,3-b]pyridin-5-yl)oxy)-4-(4-((6-(4-chlorophenyl)spiro[3.5]non-6-en-7-yl)methyl)piperazin-1-yl)-5-fluorobenzamide]: the IC50 in series [3] turned out to be 6710 nM.

Regarding `O=C(NS(=O)(=O)c1ccc(NC[C@H]2COCCO2)c([N+](=O)[O-])c1)c1ncc(N2CCN(CC3=C(c4ccc(Cl)cc4)CC4(CCC4)CC3)CC2)cc1Oc1cnc2[nH]ccc2c1` [compound 27, (S)-N-((4-(((1,4-dioxan-2-yl)methyl)amino)-3-nitrophenyl)sulfonyl)-3-((1H-pyrrolo[2,3-b]pyridin-5-yl)oxy)-5-(4-((6-(4-chlorophenyl)spiro[3.5]non-6-en-7-yl)methyl)piperazin-1-yl)picolinamide], the IC50 came out at 5.2 nM in series [2] and 16.9 nM in series [3] (Homo sapiens, MV4-11).

On to `O=C(NS(=O)(=O)c1ccc(NC[C@H]2COCCO2)c([N+](=O)[O-])c1)c1ccc(N2CCN(CC3=C(c4ccc(Cl)cc4)CC4(CCC4)CC3)CC2)nc1Oc1cnc2[nH]ccc2c1` [compound 28, (S)-N-((4-(((1,4-dioxan-2-yl)methyl)amino)-3-nitrophenyl)sulfonyl)-2-((1H-pyrrolo[2,3-b]pyridin-5-yl)oxy)-6-(4-((6-(4-chlorophenyl)spiro[3.5]non-6-en-7-yl)methyl)piperazin-1-yl)nicotinamide], for which the IC50 in series [2] is 968 nM; in series [3] (Homo sapiens, MV4-11), 1300 nM.

For the compound `O=C(NS(=O)(=O)c1ccc(NCC2CCOCC2)c([N+](=O)[O-])c1)c1ccc(N2CCN(CC3=C(c4ccc(Cl)cc4)CC4(CCC4)CC3)CC2)nc1Oc1cnc2[nH]ccc2c1` [compound 32, 2-((1H-pyrrolo[2,3-b]pyridin-5-yl)oxy)-6-(4-((6-(4-chlorophenyl)spiro[3.5]non-6-en-7-yl)methyl)piperazin-1-yl)-N-((3-nitro-4-(((tetrahydro-2H-pyran-4-yl)methyl)amino)phenyl)sulfonyl)nicotinamide], in series [2], the IC50 was 1380 nM.

One may read the MRT inf as the average time that molecules of a dose stay in the body. What is called Cmax is the peak of the concentration-time curve. The term Tmax denotes the time at which the peak concentration occurs. For orientation: IC50 means the concentration that inhibits the measured activity by half.
